Data: EP4667582A1, “FACTOR XA REAGENT” (Instrumentation Laboratory Company, priority 2024, dated 2025)
Where a name gives a salt, the structure may show the parent alone.

Legend:
Type in all cases: biochemical
factor Xa [1] = assay: factor Xa chromogenic assay with guanidine derivatives (substrate S-2732, mAbs/min at 405 nm); settings: for factor Xa inhibition: Fig. 4, dilutions in water, 6nkat/mL factor Xa, 20mM HEPES pH 7.5, 1.5 mM S-2732, ranking between compounds; for factor Xa activity: Fig. 3, activity plotted against guanidine derivative or NaCl concentration, 6 nkat/mL factor Xa, 20mM Hepes pH 7.5, 37°C, 1.5mM S-2732
Description: In this experiment, activity of factor Xa in the presence of guanidine sulfate and its derivatives (e.g., 1-methylguanidine sulfate, 1,1-dimethylguanidine sulfate, 1,1-diethylguanidine, N-benzyl, N-methylguanidine sulfate, 1,1,3,3-tetramethylgunidine and 1,1-dimethylbiguanide HCl) was evaluated using a chromogenic assay. In the experiment, each guanidine derivative was dissolved in deionized (DI) water to a final concentration of 100mM. A number of such guanidine dilutions were prepared. Guanidine derivative levels in the solutions were tested in triplicate at 37°C as follows: 40µL (microliters) of each guanidine derivative level was incubated for 20 seconds (s) to 60s before 40µL of 6 nkat/mL factor Xa in 20mM Hepes pH 7.5 buffer was added to the reaction. After an incubation period of 150s to 180s, 100µL of 1.5mM factor Xa chromogenic substrate S-2732™ was added to the reaction and milli-absorbance per minute (mAbs/min) at 405nm (nanometers) was measured after a 20s delay.
In this experiment, the effects of guanidine sulfate and the guanidine derivatives: 1-methylguanidine sulfate, 1,1-dimethylguanidine sulfate, 1,1-diethylguanidine, and N-benzyl, N-methylguanidine sulfate were analyzed using a chromogenic assay. A number of dilutions were prepared in water with guanidine or a guanidine derivative of the type described herein. 40µL of each of the guanidine or guanidine derivatives were mixed for 20s to 60s with 40µL of 6nkat/mL factor Xa diluted in 20mM HEPES, pH 7.5 buffer. After an incubation period of 150s to 180s, 100µL of the factor Xa chromogenic substrate S-2732™ (1.5 mM) was added to each of the guanidine and factor Xa mixtures and each mixture was chromogenically measured at 405nm mAbs/min after a 20s delay.

factor Xa [2] = assay: factor Xa substrate turnover rates at a range of factor Xa levels, 1,1-dimethylguanidine compared to NaCl; settings: Fig. 6; 22mM 1,1-dimethylguanidine compared to 33 mM NaCl; 37°C, 1.5mM S-2732
Description: Guanidine derivatives modulate factor Xa enzymatic activity in a reaction, as explained previously, thereby slowing-down the reaction. As a result, greater amounts and/or concentrations of factor Xa can be used in a reaction when a guanidine derivative is incorporated into the reaction. In this experiment, factor Xa levels were tested in a reaction in triplicate at 37°C as follows: 40µL of factor Xa was incubated for 20s to 60s before 40µL of 100mM 1,1-dimethylguanidine or 150mM NaCl in water was added to the reaction. After an incubation period of 150s to 180s, 100µL of 1.5mM factor Xa chromogenic substrate S-2732™ was added to the reaction and mAbs/min at 405 nm was measured after a 20s delay. In Fig. 6, substrate turnover rates (e.g., coloring of the substrate) in the presence of 22mM 1,1-dimethylguanidine 601 were compared to substrate turnover rates in the presence of 33 mM NaCl 602. As evident from Fig. 6, greater amounts and/or concentrations of factor Xa can be added to the reaction in the presence of 1,1-dimethylguanidine to produce the same substrate turnover rates relative to NaCl. […] Greater amounts and/or concentrations of factor Xa facilitate detection of factor Xa inhibitors or reversal of such inhibitors in an assay, as noted previously.

factor Xa [3] = assay: factor Xa chromogenic activity in plasma sample containing dimethylguanidine (9:1 sample to factor Xa ratio); settings: Fig. 7, 50mM compared to 25mM dimethylguanidine, 1.5 mM S-2732, 37°C
Description: In this experiment, 180µL of a plasma sample containing dimethylguanidine (DMG) and 1.5 mM substrate S-2732™ were mixed with 20µL of factor Xa (a 9:1 sample to factor Xa ratio). The activity of factor Xa was determined at 37°C based on chromogenic activity of the substrate. The activity of factor Xa linearly correlates with the factor Xa concentration in the presence of dimethylguanidine. […] Thus, increasing the amount of dimethylguanidine in a sample reduces a rate of the reaction. In some implementations, dimethylguanidine can be added to a reaction at a concentration of up to about 500mM.

| Compound | factor Xa inhibition (factor Xa [1]) | factor Xa activity (factor Xa [1]) | also measured |
| --- | --- | --- | --- |
| CCN(CC)C(=N)N.O=S(=O)(O)O [1,1-diethylguanidine sulfate] | largest extent of factor Xa inhibition | – | – |
| CN(C)C(=N)NC(=N)N [1,1-dimethyl-biguanide, reference compound] | – | modulate factor Xa dose-dependently, although less than 1-methylated guanidine sulfate | – |
| CN(C)C(=N)N.O=S(=O)(O)O [1,1-dimethylguanidine sulfate] | largest extent of factor Xa inhibition | – | – |
| CN(C)C(=N)N [1,1-dimethylguanidine] | – | – | substrate turnover rates (factor Xa [2]): the reaction has been slowed-down; rate of the reaction (activity of factor Xa) (factor Xa [3]): slows reaction of the factor Xa in a sample greater than 25mM |
| CNC(=N)N [1-methylguanidine sulfate] | reduced factor Xa inhibition as compared to the factor Xa inhibition of mixtures containing dialkylated guanidine derivatives | modulates factor Xa dose-dependently | – |
| CN(Cc1ccccc1)C(=N)N.O=S(=O)(O)O [N-benzyl N-methylguanidine sulfate] | reduced factor Xa inhibition as compared to the factor Xa inhibition of mixtures containing dialkylated guanidine derivatives | – | – |
| N=C(N)N [guanidine sulfate] | least amount of reduction in factor Xa inhibition | modulate factor Xa dose-dependently, although less than 1-methylated guanidine sulfate | – |
| NaCl [reference compound] | – | activates factor Xa activity | – |
